Test results as given in patent US4822778A, “Membrane stabilizing phenoxy-piperidine compounds and pharmaceutical compositions employing such compounds” (Aberg; Gunnar, priority 1988, dated 1989).

What was measured:
[1] = Convulsive and lethal doses in rats, intravenous infusion; type: in vivo; settings: rat, in vivo, iv; male rats, i.v. at 1.0 mg/kg/min; read-out: Convulsive dose
Description: (§1) Convulsive doses and lethal doses after intravenous administration for selected compounds of the invention and for Bupivacaine are shown in Table 3 below.
(§2) Convulsive and lethal doses of selected compounds
(§3) administered intravenously at 1.0 mg/kg/min to rats (male;

[2] = tested on: rats; test: as above; type: in vivo; settings: male rats, i.v. at 1.0 mg/kg/min
Description: as §1, §2, §3

[3] = in vivo; settings: mouse, sc
[4] = tested on: sciatic nerve; test: Nerve blocking effects in rats in vivo; settings: 0.25 ml of 0.5% by weight solution
Description: B. Nerve blocking effects. The tests were carried out in vivo in rats after injection of 0.25 ml of the test solutions close to the sciatic nerve.

[5] = tested on: rabbit cornea; test: Topical anesthetic effects, corneal test in rabbits in vivo; settings: 0.25 ml
Description: C. Topical anesthetic effects. Corneal tests were carried out in rabbits in vivo according to Henn.

[6] = tested on: guinea pigs; test: Infiltration anesthetic effects, intracutaneous injection in guinea pigs; type: in vivo; settings: 0.2 ml of 0.5% by weight solution
Description: 1. […] A. Infiltration anesthetic effects: The effects of the new compounds were tested according to Aberg & […], Acta Anaesth.

[7] = tested on: ventricular arrhythmias; test: Antiarrhythmic effects, ouabain-induced ventricular arrhythmias in anesthetized dogs; type: in vivo; settings: i.v.
Description: 2. Antiarrhythmic effects.
Ventricular arrhythmias were induced in anesthetized dogs by intravenous injection of ouabain: initially 40 μg/kg bodyweight and thereafter 20 μg/kg bodyweight every 20 minutes until the ventricular arrhythmia was regarded as manifest. Lidocaine was also tested by the same procedure. The new compounds were compared with lidocaine, a known antiarrhythmic compound.

[8] = tested on: lingomandibular reflex; test: Interneuronblocking effects, lingomandibular reflex in anesthetized cats; type: in vivo, cats (female; 2.5-3.5 kg)
Description: 3. Interneuronblocking effects.
Tests were carried out in anesthetized cats (female; 2.5-3.5 kg bodyweight). The effects of the compounds were studied on the lingomandibular reflex, which was provoked by means of electrical stimulation of the tongue. The mandibular reflux was registered from a transducer connected to the mandible. Phenyramidole was tested by the same procedure. As evident from the results shown in Table 8, the compound according to Example 2 of the invention is 10 times as potent as phenyramidole.

[9] = tested on: cynomolgus monkeys; test: Spinal anesthetic effects in monkeys, intrathecal injection; type: in vivo; settings: intrathecal 1.0 ml
Description: D. Spinal Anesthetic Effects.
Spinal anesthetsias were performed on cynomolgus monkeys that had been sedated with ketamine (6 mg/kg; i.m.). 1.0 ml of the test solutions were injected intrathecally and the durations were tested every ten (10) minutes with forceps. The duration of motoric blockade was calculated as the time until the hind leg paralysis ceased.

`CCCCN1CCCCC1C(=O)Nc1c(C)cccc1C` (centres unmarked) [Bupivacaine, reference compound] showed a TD50 [1] of 9 mg/kg, a Lethal dose [2] of 13 mg/kg and an LD50 [3] of 50 mg/kg.
For `Cc1cccc(C)c1OCC1CCCCN1` (centres unmarked) [Example 1, 2-[(2,6-xyloxy)methyl]piperidine], the “Nerve blocking effect, Motoric blockade” value [4] was 75 min, the “Nerve blocking effect, Sensoric blockade” value [4] was 90 min and the “Topical anesthetic effect, Duration” value ([5]; concentration 1.0%) was 24 ± 4 min. For the same compound, the “Topical anesthetic effect, Onset frequency” value ([5]; concentration 1.0%) was 9/10, the TD50 [1] was 22 mg/kg and the Lethal dose [2] was 50 mg/kg. For the same compound, the LD50 [3] was 110 mg/kg, the Infiltration anesthesia duration [6] was 40 min and the Duration of regularization ([7]; 1 mg/kg) was 5 min. It also gave a Duration of regularization ([7]; 2 mg/kg) of 10 min.
For `Cc1cccc(C)c1OCC1CCCCN1C.Cl` (centres unmarked) [Example 2, N-methyl-2-[(2,6-xyloxy)methyl]-piperidine hydrochloride], the “Nerve blocking effect, Motoric blockade” value [4] was 110 min, the “Nerve blocking effect, Sensoric blockade” value [4] was 135 min and the “Topical anesthetic effect, Duration” value ([5]; concentration 1.0%) was 14 ± 4 min. The “Topical anesthetic effect, Onset frequency” value ([5]; concentration 1.0%) was 7/10, the TD50 [1] was 10 mg/kg and the Lethal dose [2] was 33 mg/kg. The LD50 [3] was 260 mg/kg, the Infiltration anesthesia duration [6] was 120 min and the inhibition at 0.25 mg/kg ([8]; Felis catus, iv, 0.25 mg/kg bodyweight, read-out: Maximal inhibition) was 30%. It also gave an inhibition at 0.5 mg/kg ([8]; Felis catus, iv, 0.50 mg/kg bodyweight, read-out: Maximal inhibition) of 80%, an inhibition at 1 mg/kg ([8]; Felis catus, iv, 1.00 mg/kg bodyweight, read-out: Maximal inhibition) of 100% and a Duration of inhibition ([8]; i.v., 0.25 mg/kg bodyweight) of 10 min. For the same compound, the Duration of inhibition ([8]; i.v., 0.50 mg/kg bodyweight) was 20 min, the Duration of inhibition ([8]; i.v., 1.00 mg/kg bodyweight) was 45 min and the “Potency relative to phenyramidole” value ([8]; i.v., compared with phenyramidole) was 10 times. It also gave a Duration of regularization ([7]; 1 mg/kg) of 2 min and a Duration of regularization ([7]; 2 mg/kg) of 4 min.
With `CC1CCCC(C)C1OCC1CCCCN1` (centres unmarked) [Example 3, 2-[(2,6-dimethylcyclohexyloxy)methyl]piperidine] the “Nerve blocking effect, Motoric blockade” value [4] was 0 min, the “Nerve blocking effect, Sensoric blockade” value [4] was 0 min and the LD50 [3] was 180 mg/kg. The Infiltration anesthesia duration [6] was 35 min.
With `CC1CCCC(C)C1OCC1CCCCN1C` (centres unmarked) [Example 4] the “Nerve blocking effect, Motoric blockade” value [4] was 65 min, the “Nerve blocking effect, Sensoric blockade” value [4] was 80 min and the LD50 [3] was 350 mg/kg. For the same compound, the Infiltration anesthesia duration [6] was 60 min.
With `CCN1CCCCC1COc1c(C)cccc1C` (centres unmarked) [Example 5, N-ethyl-2-[(2,6-xyloxy)-methyl]piperidine] the “Nerve blocking effect, Motoric blockade” value [4] was 90 min, the “Nerve blocking effect, Sensoric blockade” value [4] was 115 min and the “Topical anesthetic effect, Duration” value ([5]; concentration 1.0%) was 18 ± 3 min. For the same compound, the “Topical anesthetic effect, Onset frequency” value ([5]; concentration 1.0%) was 9/10, the TD50 [1] was 15 mg/kg and the Lethal dose [2] was 41 mg/kg. The LD50 [3] was 200 mg/kg, the Infiltration anesthesia duration [6] was 70 min and the “Duration, Anal Blockade” value ([9]; 3.0% by wt.) was 258 min. For the same compound, the “Duration, Digital Blockade” value ([9]; 3.0% by wt.) was 163 min, the “Duration, Motor Blockade” value ([9]; 3.0% by wt.) was 178 min and the Duration of regularization ([7]; 1 mg/kg) was 3 min.
With `CCCN1CCCCC1COc1c(C)cccc1C` (centres unmarked) [Example 6, N-(n-propyl)-2-[(2,6-xyloxy)methyl]piperidine] the “Nerve blocking effect, Motoric blockade” value [4] was 145 min, the “Nerve blocking effect, Sensoric blockade” value [4] was 155 min and the “Topical anesthetic effect, Duration” value ([5]; concentration 1.0%) was 24 ± 2 min. The “Topical anesthetic effect, Onset frequency” value ([5]; concentration 1.0%) was 9/9, the TD50 [1] was 11 mg/kg and the Lethal dose [2] was 20 mg/kg. For the same compound, the LD50 [3] was 200 mg/kg, the Infiltration anesthesia duration [6] was 175 min and the “Duration, Anal Blockade” value ([9]; 3.0% by wt.) was greater than 291 min. For the same compound, the “Duration, Digital Blockade” value ([9]; 3.0% by wt.) was 222 min, the “Duration, Motor Blockade” value ([9]; 3.0% by wt.) was greater than 198 min and the Duration of regularization ([7]; 1 mg/kg) was 4 min.
In the case of `CCCCN1CCCCC1COc1c(C)cccc1C` (centres unmarked) [Example 7, N-(n-butyl)-2-[(2,6-xyloxy)methyl]piperidine], the “Nerve blocking effect, Motoric blockade” value [4] is reported as 140 min, the “Nerve blocking effect, Sensoric blockade” value [4] is reported as 160 min and the “Topical anesthetic effect, Duration” value ([5]; concentration 1.0%) is reported as 27 ± 4 min. For the same compound, the “Topical anesthetic effect, Onset frequency” value ([5]; concentration 1.0%) was 10/10, the TD50 [1] was 16 mg/kg and the Lethal dose [2] was 24 mg/kg. For the same compound, the LD50 [3] was 225 mg/kg, the Infiltration anesthesia duration [6] was 165 min and the Duration of regularization ([7]; 1 mg/kg) was 4 min.
With `Cc1ccc(OCC2CCCCN2C)c(C)c1` (centres unmarked) [Example 8] the “Nerve blocking effect, Motoric blockade” value [4] was 55 min, the “Nerve blocking effect, Sensoric blockade” value [4] was 75 min and the LD50 [3] was 400 mg/kg. It also gave an Infiltration anesthesia duration [6] of 35 min.
With `Cc1ccc(C)c(OCC2CCCCN2C)c1` (centres unmarked) [Example 9] the “Nerve blocking effect, Motoric blockade” value [4] was 75 min, the “Nerve blocking effect, Sensoric blockade” value [4] was 95 min and the LD50 [3] was 400 mg/kg. For the same compound, the Infiltration anesthesia duration [6] was 25 min.
For `CN1CCCCC1COc1ccccc1` (centres unmarked) [Example 10], the “Nerve blocking effect, Motoric blockade” value [4] was 25 min, the “Nerve blocking effect, Sensoric blockade” value [4] was 40 min and the LD50 [3] was 150 mg/kg. The Infiltration anesthesia duration [6] was 35 min.
With `Cc1ccccc1OCC1CCCCN1C` (centres unmarked) [Example 11] the “Nerve blocking effect, Motoric blockade” value [4] was 60 min, the “Nerve blocking effect, Sensoric blockade” value [4] was 85 min and the LD50 [3] was 300 mg/kg. For the same compound, the Infiltration anesthesia duration [6] was 55 min.
For `Cc1cccc(C)c1OCC1CCCCN1CCO` (centres unmarked) [Example 12], the “Nerve blocking effect, Motoric blockade” value [4] was 95 min, the “Nerve blocking effect, Sensoric blockade” value [4] was 95 min and the LD50 [3] was 220 mg/kg. The Infiltration anesthesia duration [6] was 40 min.
For `CCN(CC)CC(=O)Nc1c(C)cccc1C` [Lidocaine, reference compound], the “Nerve blocking effect, Motoric blockade” value [4] was 40 min, the “Nerve blocking effect, Sensoric blockade” value [4] was 35 min and the “Topical anesthetic effect, Duration” value ([5]; concentration 4.0%) was 23 ± 3 min. For the same compound, the “Topical anesthetic effect, Onset frequency” value ([5]; concentration 4.0%) was 10/10, the Infiltration anesthesia duration [6] was 25 min and the “Duration, Anal Blockade” value ([9]; 5.0% by wt.) was 150 min. The “Duration, Digital Blockade” value ([9]; 5.0% by wt.) was 88 min, the “Duration, Motor Blockade” value ([9]; 5.0% by wt.) was 73 min and the Duration of regularization ([7]; 1 mg/kg) was 2 min. It also gave a Duration of regularization ([7]; 2 mg/kg) of 4 min.
`OC(CNc1ccccn1)c1ccccc1` (centres unmarked) [Phenyramidole, reference compound] gave an inhibition at 2.5 mg/kg ([8]; Felis catus, iv, 2.5 mg/kg bodyweight, read-out: Maximal inhibition) of 40%, an inhibition at 5 mg/kg ([8]; Felis catus, iv, 5.0 mg/kg bodyweight, read-out: Maximal inhibition) of 80% and an inhibition at 10 mg/kg ([8]; Felis catus, iv, 10.0 mg/kg bodyweight, read-out: Maximal inhibition) of 100%. It also gave a Duration of inhibition ([8]; i.v., 2.5 mg/kg bodyweight) of 5 min, a Duration of inhibition ([8]; i.v., 5.0 mg/kg bodyweight) of 20 min and a Duration of inhibition ([8]; i.v., 10.0 mg/kg bodyweight) of 60 min.
